The results in this text go back to patent publication US20260144879A1, “ANTI-VIRAL AND HEPATIC-TARGETED DRUGS” (AI-BIOPHARMA, priority 2019, published 2026).

A word on the CC50: it is the concentration that lowers cell viability or growth by half.

In data set [1] the test system is HBV (genotype D, serotype ayw, Galibert's strain). The data set can be described thus: Quantification of virion associated secreted HBV DNA in supernatant of HBV-infected differentiated HepaRG (dHepaRG) cells by qPCR, % of replication vs DMSO. It counts as cell-based, hepatitis B virus. Conditions: 1 μM compound, 7 days treatment, DMSO = 100%; for activity at 1 µM: Hepatitis B virus, HepaRG, 168 h, read-out: dHepaRG HBV % of replication at 1 μM compared to DMSO. As for the experimental part: (§1) From Methods in Lucifora J. et al. (Direct antiviral properties of TLR ligands against HBV replication in immune-competent hepatocytes, Science Scientific Reports, 2018, 8:5390): • 1) HepaRG cells were cultured, as described previously by Gripon P. et al. (Infection of a human hepatoma cell line by hepatitis B virus. Proc Natl Acad Sci USA, 2002, 99, p 15655-15660) on pages 15655 and 15656, in Williams E medium supplemented with 10% fetal calf serum, 50 U penicillin/streptomycin (Gibco-Invitrogen) ml^−1, […] ml^−1 and 5×10^−7 M hydrocortisone hemisuccinate (Roche Diagnostics and Boehringer Mannheim, respectively). The cell cultures were maintained in a 5% CO2 atmosphere at 37° C. During the proliferation phase, culture medium was renewed every 2 days. For differentiation and infection, cells were maintained for 2 weeks in standard medium and then for at least 2 more weeks in medium supplemented with 1.8-2.0% DMSO (Sigma). • 2) Primary Human Hepatocytes (PHH) were freshly prepared from human liver resection as previously described by Lecluyse, E. L. & Alexandre, E. (Isolation and culture of primary hepatocytes from resected human liver tissue. Methods Mol Biol, 2010, 640, p 57-82, https://doi.org/10.1007/978-1-60761-688-7_3) on page 63 paragraph 3. “Methods” from section 3.1. through 3.6.2. page 77. All experimental procedures were conducted in conformity with French laws and regulations and were approved by the National Ethics Committee. • 3) Cell viability was measured by both neutral red and MTS (CellTiter 96 Aqueous One Solution cell proliferation assay; Promega) tests. • 4) HBV inoculum (genotype D, serotype ayw, Galibert's strain referred as NC_003977.2 at NCBI) was prepared from HepAD38 (see Ladner, S. K. et al., Inducible expression of human hepatitis B virus (HBV) in stably transfected hepatoblastoma cells: a novel system for screening potential inhibitors of HBV replication. Antimicrob Agents Chemother, 1997, 41, p 1715-1720) supernatants by polyethylene-glycol-MW-8000 (PEG8000, SIGMA) precipitation (8% final) as previously described by Luangsay, S. et al. (Early inhibition of hepatocyte innate responses by hepatitis B virus. J Hepatol, 2015, 63, p 1314-1322, https://doi.org/10.1016/j.jhep.2015.07.014).
(§2) Viral stocks with titer reaching at least 1×10^10 viral genome equivalent (vge)/mL were tested endotoxin free.
(§3) Differentiated HepaRG (dHepaRG) or PHH were infected by HBV at a multiplicity of infection of 100-200 vge/cell in culture medium containing 4% PEG 8000 (Sigma) for 16 h at 37° C. in 12- or six-well plates. At the end of the incubation period, cells were washed once with medium and then cultured in Williams E medium containing DMSO as indicated. In general infection was left for 7 days before any treatment was started, to allow replication reaching its maximum. • 5) Infected cell treatment with compounds of interest: • 5a: After 7 days of infection with the virus (day 0 to day 7), the dHepaRG cells were treated (3 treatments: day 7, day 10 and day 12) with a […] of the tested compound (diluted with sterile water from a 10 mM stock DMSO solution) or DMSO as reference negative control for 7 more days. • 5b: After 4 days of infection with the virus (day 0 to day 4), the PHH cells were treated (3 treatments: day 4, day 7 and day 9) with a […] of the tested compound (diluted with sterile water from a 10 mM stock DMSO solution) for 7 more days. • 6) Quantification of virion associated secreted HBV DNA in cell culture supernatant:
(§4) At the end of the experiment (7 days treatment) the supernatant of infected and treated cells (either dHepaRG or PHH or others) is collected. It is diluted 1/4 into sterile water (molecular biology quality) then treated for 30 minutes with RNAse (10 unit) and DNAse (10 unit) to remove non encapsidated material. […]

Data set [2] has the same test system. The data set can be described thus: Quantification of virion associated secreted HBV DNA in supernatant of HBV-infected Primary Human Hepatocytes (PHH) by qPCR, % of replication vs DMSO. It counts as cell-based, hepatitis B virus. Conditions: 1 μM compound, 7 days treatment, DMSO = 100%; for activity at 1 µM: Hepatitis B virus, Hepatocyte, 168 h, (*) n = 1, read-out: PHH HBV % of replication at 1 μM compared to DMSO; for PHH HBV % of replication at 1 μM compared to DMSO: (*) n = 1. The protocol:
as §1, §2, §3, §4

Data set [3] can be described thus: Cell viability by neutral red and MTS (CellTiter 96 Aqueous One Solution) tests, HepaRG cells. It counts as cell-based, human. Particulars: human, differentiated HepaRG (dHepaRG) cells, CellTiter-Glo, read-out: Cytotoxicity (CC50 in μM) in dHepaRG CellTiter-Glo. The protocol: (§5) From Methods in Lucifora J. et al. (Direct antiviral properties of TLR ligands against HBV replication in immune-competent hepatocytes, Science Scientific Reports, 2018, 8:5390): • 1) HepaRG cells were cultured, as described previously by Gripon P. et al. (Infection of a human hepatoma cell line by hepatitis B virus. Proc Natl Acad Sci USA, 2002, 99, p 15655-15660) on pages 15655 and 15656, in Williams E medium supplemented with 10% fetal calf serum, 50 U penicillin/streptomycin (Gibco-Invitrogen) ml^−1, […] ml^−1 and 5×10^−7 M hydrocortisone hemisuccinate (Roche Diagnostics and Boehringer Mannheim, respectively). The cell cultures were maintained in a 5% CO2 atmosphere at 37° C. During the proliferation phase, culture medium was renewed every 2 days. For differentiation and infection, cells were maintained for 2 weeks in standard medium and then for at least 2 more weeks in medium supplemented with 1.8-2.0% DMSO (Sigma). • 2) Primary Human Hepatocytes (PHH) were freshly prepared from human liver resection as previously described by Lecluyse, E. L. & Alexandre, E. (Isolation and culture of primary hepatocytes from resected human liver tissue. Methods Mol Biol, 2010, 640, p 57-82, https://doi.org/10.1007/978-1-60761-688-7_3) on page 63 paragraph 3. “Methods” from section 3.1. through 3.6.2. page 77. […] K. et al., Inducible expression of human hepatitis B virus (HBV) in stably transfected hepatoblastoma cells: a novel system for screening potential inhibitors of HBV replication. Antimicrob Agents Chemother, 1997, 41, p 1715-1720) supernatants by polyethylene-glycol-MW-8000 (PEG8000, SIGMA) precipitation (8% final) as previously described by Luangsay, S. et al. (Early inhibition of hepatocyte innate responses by hepatitis B virus. J Hepatol, 2015, 63, p 1314-1322, https://doi.org/10.1016/j.jhep.2015.07.014).
Background: Cellular ATP, detected with luciferase, serves as a proxy for viable cell number.

In data set [4] the test system is HepaRG cells. The data set is described as above. The format is cell-based, human. Particulars: dHepaRG cells, CellTiter-Glo; read-out: Cytotoxicity (CC50 in μM) in dHepaRG CellTiter-Glo. The protocol: as §5

A value given as a limit tells only on which side of the number the result lay.

Take `CC(C)OC(=O)CC1COP(=O)(CO[C@H](C)Cn2cnc3c(N)ncnc32)OC1` (stereo partly drawn) [Example 3, (R)-isopropyl 2-(2-(((1-(6-amino-9H-purin-9-yl)propan-2-yl)oxy)methyl)-2-oxo-1,3,2-dioxaphosphinan-5-yl)acetate]: the activity at 1 µM in data set [1] and in data set [2] was no more than 30% in each case. Further, the CC50 in data set [3] was greater than 50 µM.
With `CCOC(=O)CC1COP(=O)(CO[C@H](C)Cn2cnc3c(N(C(C)=O)C(C)=O)ncnc32)OC1` (stereo partly drawn) [Example 14, (R)-ethyl 2-(2-(((1-(6-(N-acetylacetamido)-9H-purin-9-yl)propan-2-yl)oxy)methyl)-2-oxo-1,3,2-dioxaphosphinan-5-yl)acetate], the activity at 1 µM in data set [1] and in data set [2] was 50 to 80% in each case.
For the molecule `CCOC(=O)CC1COP(=O)(CO[C@H](C)Cn2cnc3c(NC(=O)CC)ncnc32)OC1` (stereo partly drawn) [Example 15, (R)-ethyl 2-(2-oxo-2-(((1-(6-propionamido-9H-purin-9-yl)propan-2-yl)oxy)methyl)-1,3,2-dioxaphosphinan-5-yl)acetate], the activity at 1 µM in data set [1] and in data set [2] was no more than 30% each time.
Turning to `CCOC(=O)CC1COP(=O)(CO[C@H](C)Cn2cnc3c(NC(=O)C(C)C)ncnc32)OC1` (stereo partly drawn) [Example 16, (R)-ethyl 2-(2-(((1-(6-isobutyramido-9H-purin-9-yl)propan-2-yl)oxy)methyl)-2-oxo-1,3,2-dioxaphosphinan-5-yl)acetate], the activity at 1 µM in data set [1] and in data set [2] was no more than 30% throughout.
For `CCOC(=O)CC1COP(=O)(CO[C@H](C)Cn2cnc3c(NC(=O)CC(C)C)ncnc32)OC1` (stereo partly drawn) [Example 17, (R)-ethyl 2-(2-(((1-(6-(3-methylbutanamido)-9H-purin-9-yl)propan-2-yl)oxy)methyl)-2-oxo-1,3,2-dioxaphosphinan-5-yl)acetate], the activity at 1 µM in data set [1] is 30 to 50%; in data set [2] it was no more than 30%.
On the same counts, the results for `CCOC(=O)CC1COP(=O)(CO[C@H](C)Cn2cnc3c(NC(=O)c4ccccc4)ncnc32)OC1` (stereo partly drawn) [Example 19, (R)-ethyl 2-(2-(((1-(6-benzamido-9H-purin-9-yl)propan-2-yl)oxy)methyl)-2-oxo-1,3,2-dioxaphosphinan-5-yl)acetate] are no more than 30% and no more than 30%.
For the molecule `CC(C)OC(=O)CC1COP(=O)(CO[C@H](C)Cn2cnc3c(N(C(=O)c4ccccc4)C(=O)c4ccccc4)ncnc32)OC1` (stereo partly drawn) [Example 20, (R)-isopropyl 2-(2-(((1-(6-(N-benzoylbenzamido)-9H-purin-9-yl)propan-2-yl)oxy)methyl)-2-oxido-1,3,2-dioxaphosphinan-5-yl)acetate], the activity at 1 µM in data set [1] and in data set [2] was no more than 30% in each case. Moreover, the CC50 in data set [3] was greater than 50 µM.
In the case of `CC(C)OC(=O)CC1COP(=O)(CO[C@H](C)Cn2cnc3c(NC(=O)c4ccccc4)ncnc32)OC1` (stereo partly drawn) [Example 21, (R)-isopropyl 2-(2-(((1-(6-benzamido-9H-purin-9-yl)propan-2-yl)oxy)methyl)-2-oxo-1,3,2-dioxaphosphinan-5-yl)acetate], the activity at 1 µM in data set [1] and in data set [2] was no more than 30% in each case. Further, the 50% cytotoxic concentration (CC50) in data set [3] was greater than 50 µM.
As to `CC(C)OC(=O)CC1COP(=O)(CO[C@H](C)Cn2cnc3c(NC(=O)C(C)C)ncnc32)OC1` (stereo partly drawn) [Example 21a, (R)-isopropyl 2-(2-(((1-(6-isobutyramido-9H-purin-9-yl)propan-2-yl)oxy)methyl)-2-oxido-1,3,2-dioxaphosphinan-5-yl)acetate], the activity at 1 µM in data set [1] and in data set [2] was no more than 30% in each case.
Consider `CC(C)OC(=O)CCC1COP(=O)(CO[C@H](C)Cn2cnc3c(NC(=O)c4ccccc4)ncnc32)OC1` (stereo partly drawn) [Example 25, (R)-isopropyl 3-(2-(((1-(6-benzamido-9H-purin-9-yl)propan-2-yl)oxy)methyl)-2-oxo-1,3,2-dioxaphosphinan-5-yl)propanoate], for which the activity at 1 µM in data set [1] and in data set [2] was 50 to 80% in each case.
`CC(C)OC(=O)[C@H](C)N[P@](=O)(CO[C@H](C)Cn1cnc2c(N)ncnc21)Oc1ccccc1` [TAF]: in data set [1], the “dHepaRG HBV % of replication at 1 μM compared to DMSO” value is on record as “++++ (++++ ≤ 30%)”. In data set [2], the “PHH HBV % of replication at 1 μM compared to DMSO” value was “++++ (++++ ≤ 30%)”. In data set [4], the half-maximal cytotoxic concentration (CC50) is less than 10 µM.
As for `C[C@H](Cn1cnc2c(N)ncnc21)OCP(=O)(O)O` [TFV], the “dHepaRG HBV % of replication at 1 μM compared to DMSO” value in data set [1] is given as “++++ (++++ ≤ 30%)”. Also, the “PHH HBV % of replication at 1 μM compared to DMSO” value in data set [2] is “++++ (++++ ≤ 30%)”. In data set [4], the cytotoxic concentration (CC50) was greater than 50 µM.
